Test [1] deals with rat model of MI/AR injury (myocardial ischemia-reperfusion injury). The test is described as follows: Rat model of MI/AR injury (LCA ligation, myocardial ischemia-reperfusion). It counts as in vivo. The note with it: for MI/AR Reduction (%): male Sprague-Dawley rats, compound given 15 minutes prior to ligation, intravenous, doses ranged 1-20 mg/kg, 24 hours after reperfusion, relative to vehicle controls; for Reduction in Cardiac injury: LCA rat model, procedure of Example 2. From the text:
A rat model of MI/AR injury was used as an in vivo screen to determine if the compounds of Tables 1-5 were cardio-protective (e.g., against myocardial ischemia-reperfusion injury). This model is analogous to the ischemia-reperfusion injury observed in cardiac patients following coronary occlusions and cardiac surgery procedures, such as coronary artery bypass grafting (CABG) (Matsui, T., Tao, J., del Monte, F., Lee, K.-H. et al., Akt Activation Preserves Cardiac Function and Prevents Injury After Transient Cardiac Ischemia In vivo, Circulation 2001, 104:330, the teachings of which are incorporated herein by reference in their entirety).
The circumflex branch of the left coronary artery (LCA) was ligated temporarily to induce regional ischemia in the left ventricular mass, followed by the injection of fluorescent microspheres to delineate the ischemic region. 15 minutes prior to ligation (pre-occlusion, pre-ischemic episode), a compound from Tables 1-5 was administered to the animals. Doses of the compounds listed in Tables 1-5 ranged from 1-20 mg/kg. The animals were sacrificed about 24 hours after reperfusion and the hearts were excised, sectioned and stained with triphenyltetrazolium. The direct impact of the pharmacologic intervention was determined by measuring the myocardial infarct area (MI), the ischemic area at risk (AR) and the left ventricular area (LV). The reduction of MI over the AR (MI/AR ratio) was used as the primary measure of drug efficacy relative to vehicle controls.
Male Sprague-Dawley rats between 300 and 350 g were used for these experiments. Anesthesia was induced with 3-4% isoflurane in an induction chamber. After induction, anesthesia was maintained at a surgical plane with 1.5-2.0% isoflurane, administered by a Rodent Ventilator through a 16-gauge angiocatheter introduced orally into the trachea. The ventilator was set at 2.5 cc at a rate of 60-65 breaths per minute to maintain ventilation during surgery. The core temperature of the animal was monitored and maintained at 37° C. using a rectal probe and a heating lamp attached to a temperature controller.
A left anterior thoracotomy was performed and the heart was exposed using a vertical pericardotomy. The circumflex branch of the left coronary artery (LCx) was ligated approximately 4 mm from the aorta using a cardiovascular 7.0 monofilament suture on an 11 mm needle to induce ischemia in the left ventricle.
Fluorescent microspheres (300 μL) were injected into the left ventricular cavity 10-20 minutes after the ligation to delineate the ischemic area. The suture was removed 30 minutes after ligation to reperfuse the ischemic area and the ischemic area was checked for reperfusion.
The chest was then closed in layers using absorbable suture (Dexon 5-0) for the muscle layers and monofilament Nylon 5-0 suture was used to close the cutaneous layer. The animals were allowed to recover, then were returned to the colony.
Twenty-four hours after reperfusion, anesthesia was induced using ketamine hydrochloride and the chest was opened. The animals were sacrificed with 15% potassium chloride aqueous solution (w/v) injected into the LV cavity to arrest the heart in diastole. The heart was excised distal to the aortic valve and washed with saline to remove the blood. Sagittal slices of the heart were obtained between the base of the ventricle and the apex. Five slices of heart tissue were obtained, each 2 mm thick. The slices were immersed in a 1% 2,3,5-triphenyl-2H-tetrazolium chloride (TTC) in saline solution and then stored in the dark for 30 minutes to stain.
Images of the slices were obtained under bright field (to observe the TTC staining) and under fluorescence (to observe the microspheres). The area at risk was determined by the absence of microspheres and the infarct area was determined by the absence of TTC staining.

In test [2] the test system is PAC rat model of ischemia-induced renal injury. As to the kind of experiment: Partial aortic clamping (PAC) rat model of ischemia-induced renal injury. Format: in vivo. Particulars: for Reduction of SCr vs. control: serum creatinine 24 hours post-surgery; for serum creatinine concentrations relative to the control animals (in words): administered intravenously. From the text:
A partial aortic clamping (PAC) rat model of ischemia-induced renal injury was used as an in vivo screen to determine if RLip-EA-OH (Entry 1), RLip-Cya-OH (Entry 10), RLip-Tau (Entry 13), and RLip-aminoethylphosphonic acid (Entry 15) were renal-protective (e.g., against renal ischemia-reperfusion injury). This model simulates ischemia-reperfusion injury observed in renal patients following ischemia-induced renal failure (Molitoris, B. A., Dagher, P. C., Sandoval, R. M., Campos, S. B., Ashush, H., Fridman, E., Brafman, A. Faerman, A., Atkinson, S. J., Thompson, J. D., Kalinski, H., Skaliter, R., Erlich, S., Feinstein, E. “siRNA Targeted to p53 Attenuates Ischemic and Cisplatin-Induced Acute Kidney Injury.” J Am Soc Nephrol, 2009, vol. 20, 1754-1764, the teachings of which are incorporated herein by reference to their entirety). Serum creatinine concentrations (SCr) typically rise due to renal ischemia and effective treatment should show a reduction in serum creatinine concentrations.
The abdominal aorta just below the renal arteries was isolated and temporarily ligated to induce regional ischemia using an aortic clamp. An initial blood sample was drawn at study initiation for baseline creatinine measurement and at 24 hours post-surgery for functional evaluation of the severity of kidney injury. The animals were sacrificed about 24 hours after reperfusion.
Male Sprague-Dawley rats between 200 to 250 g were used for these experiments. Anesthesia was induced with 5% halothane and maintained with 1-1.5% halothane in oxygen-enriched air via a face mask. The rats were maintained on a warming blanket throughout the procedure to maintain body temperature at 37° C. After shaving the abdomen of the rat, a midline incision was made through the skin and musculature to expose the abdominal cavity to quantify the aortic blood flow (ABF).
Aortic clamps comprised of two 4-mm in length polyethylene tubes (PE-100, 0.86-mm diameter) were then placed around the aorta to induce renal ischemia. One clamp was placed around the aorta and the other was placed to exert variable tension via a 10-in. 3.0 silk suture. The silk thread was then tied and the tension on the two ends of the thread increased until there was a 90% reduction of initial (ABF) rate measured on the ultrasonic probe reader. A 10% baseline blood flow was maintained for a period of 30 minutes.
RLip-EA-OH (Entry 1) at 10 mg/kg; RLip-Cya-OH (Entry 10) at 3 mg/kg; RLip-Tau (Entry 13) at 3 mg/kg; and RLip-aminoethylphosphonic acid at 10 mg/kg, 3 mg/kg, and 1 mg/kg were administered intravenously via the femoral vein as a bolus dose 15 minutes prior to ischemia. A 0.15-mL venous blood sample was drawn at study initiation for baseline creatinine measurement and at 24 hours postsurgery for functional evaluation of the severity of kidney injury. Serum creatinine concentrations were then measured on a Creatinine Analyzer 2. The efficacy of RLip-EA-OH and RLip-Tau were measured against the results of vehicle-treated animals in the blinded studies. A 2-tail t-test was used to determine differences between treatments.

[3] abbreviates: 3 mg/kg iv bolus 15 minutes prior to ischemia.
[4] abbreviates: 10 mg/kg iv bolus 15 minutes prior to ischemia.

For `O=C(CCCCC1CCSS1)NC(CF)C(=O)O` [Entry 7, N-(R)-lipoyl-fluoroalanine], the “MI/AR Reduction (%)” value in test [1] was found to be 10%.

Consider `CC(NC(=O)CCCCC1CCSS1)C(=O)NC(CCC(=O)O)C(=O)O` [Entry 5, N-(R)-lipoyl-L-alanyl-L-glutamic acid], for which the “MI/AR Reduction (%)” value in test [1] is reported as 24%.

With `O=C(CCCCC1CCSS1)NCCOS(=O)(=O)O` [Entry 14, N-(R)-lipoyl-aminoethyl hydrogensulfate], in test [1], the “MI/AR Reduction (%)” value was 30%.

Take `O=C(O)CCC(NC(=O)CCCCC1CCSS1)C(=O)O` [Entry 9, N-(R)-lipoyl-L-glutamic acid]: the “MI/AR Reduction (%)” value in test [1] is listed as 33%.

Consider `O=C(CCCCC1CCSS1)NCCOP(=O)(O)O` [Entry 16, N-(R)-lipoyl-aminoethyl dihydrogenphosphate], for which, in test [1], the “MI/AR Reduction (%)” value was 47%.

As for `O=C(CCCCC1CCSS1)NC(CS(=O)(=O)O)C(=O)O` [Entry 10, N-(R)-lipoyl-L-cysteic acid], the “Reduction in Cardiac injury” value in test [1] (dose group 3 mg/kg) turned out to be 30%. The “MI/AR Reduction (%)” value in test [1] amounted to 30%. In addition, the “Reduction of SCr vs. control” value in test [2] (setting [3]) amounted to 39.5%. Further, in test [2], the “serum creatinine concentrations relative to the control animals (in words)” value is “effectively reduced serum creatinine concentrations”.

Regarding `O=C(CCCC[C@@H]1CCSS1)NCCP(=O)(O)O` [Entry 15, N-(R)-lipoyl-aminoethylphosphonic acid], the entries for the “Reduction in Cardiac injury” value in test [1] (dose group 1 mg/kg), in test [1] (dose group 3 mg/kg) and in test [1] (dose group 10 mg/kg) were 30%, 50% and 32%, respectively. The “MI/AR Reduction (%)” value in test [1] is 53%. Also, the “Reduction of SCr vs. control” value was 28.6% in test [2] (1 mg/kg iv bolus 15 minutes prior to ischemia), 28.6% in test [2] (setting [3]) and 76.0% in test [2] (setting [4]). Moreover, the “serum creatinine concentrations relative to the control animals (in words)” value in test [2] is recorded as “effectively reduced serum creatinine concentrations”.

As to `O=C(CCCC[C@@H]1CCSS1)NCCS(=O)(=O)O` [Entry 13, N-(R)-lipoyl-taurine], in test [1] (dose group 3 mg/kg), the “Reduction in Cardiac injury” value is 50%. Moreover, the “Reduction of SCr vs. control” value in test [2] (setting [3]) stood at 39.5%. Moreover, the “serum creatinine concentrations relative to the control animals (in words)” value in test [2] is “effectively reduced serum creatinine concentrations”.

For the compound `O=C(O)CCC(NC(=O)CCCCC1CCSS1)C(=O)NCCS(=O)(=O)O` [Entry 4, N-(R)-lipoyl-L-glutamyltaurine], the “MI/AR Reduction (%)” value in test [1] is 33%.

Take `O=C(CCCC[C@@H]1CCSS1)Nc1cccc(S(=O)(=O)O)c1` [Entry 18, N-(R)-lipoyl-meta-aminobenzene sulfonic acid]: the “MI/AR Reduction (%)” value in test [1] is given as 33%.

`O=C(CCCC[C@@H]1CCSS1)Nc1ccc(C(=O)O)cc1` [Entry 17, N-(R)-lipoyl-para-aminobenzoic acid]: in test [1], the “MI/AR Reduction (%)” value turned out to be 22%.

For `O=C(CCCCC1CCSS1)NC(Cc1ccc(C(=O)O)cc1)C(=O)O` [Entry 6, N-(R)-lipoyl-L-4-carboxyphenylalanine], the “MI/AR Reduction (%)” value in test [1] came to 26%.

For the compound `O=C(O)CNC(=O)C(CC(=O)O)NC(=O)CCCCC1CCSS1` [Entry 2, N-lipoyl-L-aspartylglycine], the “MI/AR Reduction (%)” value in test [1] amounted to 28%.

As to `O=C(O)CCNC(=O)CCCC[C@@H]1CCSS1` [Entry 12, N-(R)-lipoyl-β-alanine], in test [1], the “MI/AR Reduction (%)” value turned out to be 39%.

Take `O=C(CCCC[C@@H]1CCSS1)Nc1ccc(S(=O)(=O)O)cc1` [Entry 19, N-(R)-lipoyl-para-aminobenzene sulfonic acid]: in test [1], the “MI/AR Reduction (%)” value is listed as 44%.

In the case of `O=C(O)CN(CC(=O)O)C(=O)CCCC[C@@H]1CCSS1` [Entry 11, N-(R)-lipoyliminodiacetic acid], the “MI/AR Reduction (%)” value in test [1] was 21%.

For `CC(NC(=O)C(CCC(=O)O)NC(=O)CCCCC1CCSS1)C(=O)O` [Entry 1, N-(R)-lipoyl-L-glutamyl-L-alanine], in test [1] (dose group 10 mg/kg), the “Reduction in Cardiac injury” value amounted to 33%. Also, the “MI/AR Reduction (%)” value in test [1] was 31%. The “Reduction of SCr vs. control” value in test [2] (setting [4]) is given as 39.5%. Moreover, the “serum creatinine concentrations relative to the control animals (in words)” value in test [2] is on record as “effectively reduced serum creatinine concentrations”.

`CC(NC(=O)C(Cc1ccc(O)cc1)NC(=O)CCCCC1CCSS1)C(=O)O` [Entry 3, N-(R)-lipoyl-L-tyrosinyl-L-alanine]: in test [1], the “MI/AR Reduction (%)” value was 31%.

As for `O=C(CCCCC1CCSS1)NC(Cc1ccc(O)cc1)C(=O)O` [Entry 8, N-(R)-lipoyl-L-tyrosine], the “MI/AR Reduction (%)” value in test [1] was 29%.

Source of the values: US8815937B2, “Lipoyl compounds and their use for treating ischemic injury” (Ischemix LLC, priority 2010, dated 2014).
